Test results as given in patent US4156016A, “Indole compounds and process for their preparation” (Hoffmann-La Roche Inc., priority 1977, dated 1979).
Read-outs that look alike come from different tables or passages of the source.

Tests used:
[1] = Ulcerogenicity (general statement)
[2] = tested on: human blood-platelet aggregation; test: Inhibition of human blood-platelet aggregation (general statement)
[3] = Toxicity (general statement)
[4] = Central and peripheral pharmacological activity (statement)
[5] = tested on: Epinephrine induced aggregation; test: Inhibition of epinephrine-induced platelet aggregation (second wave) in human platelet-rich plasma; type: cell-based; conditions: for inhibition at 10 µM / inhibition at 20 µM / inhibition at 25 µM / inhibition at 50 µM / inhibition at 100 µM: Homo sapiens, Platelet, read-out: Percent Inhibition
Protocol: Venous blood was collected from human volunteers in siliconized 20 ml. […] Platelet rich plasma (PRP) was separated from the red blood cells by centrifugation at 180×g for 15 minutes at room temperature. Platelet poor plasma (PPP) was prepared by centrifuging PRP at 1000×g for 2 minutes.
Techniques established by Born et al., J. Physiol. […] PRP (1 ml.) was added to a siliconized cuvette containing a siliconized stirring bar and placed in a densitometer maintained at 37° C. and stirred at 1000 RPM. Various concentrations of test compounds were added in 50 μl of saline and incubated with PRP for 5 minutes. Aggregation was initiated by the addition of sufficient concentrations of ADP (Sigma Chemical Co.), epinephrine HCl (Parke, Davis & Co., Detroit, Michigan), or human mammary gland collagen (obtained from Roosevelt Hospital, N.Y.) to give about 60% of maximum aggregation response. The light transmission through PPP was used to determine maximum response. The percent inhibition of aggregation caused by the drug was calculated from the strip chart recordings at the point of maximum collagen response.

[6] = tested on: Collagen-Induced Platelet Aggregation; test: Effect of compounds in whole blood: collagen-induced platelet aggregation after incubation in whole blood; type: cell-based, human; conditions: for Δ light transmission: mean of duplicate determinations; for inhibition at 1 µM / inhibition at 5 µM / inhibition at 10 µM / inhibition at 25 µM / inhibition at 50 µM / inhibition at 100 µM: read-out: percent inhibition
Protocol: Aliquots of citrated human blood (10 ml.) were exposed to different concentrations of the "nitrile" by mechanically shaking at room temperature for 5 minutes.

[7] = tested on: prostaglandin formation; test: Inhibition of prostaglandin formation (general statement)

SMILES: N#Cc1[nH]c2ccc(C(O)(C(F)(F)F)C(F)(F)F)cc2c1-c1ccccc1 [nitrile, 3-Phenyl-5-[2,2,2-trifluoro-1-hydroxy-1-(trifluoromethyl)ethyl]indole-2-carbonitrile]
- ulcerogenicity (in words) [1]: non-ulcerogenic
- inhibition of human blood-platelet aggregation (in words) [2]: inhibit prostaglandin formation and human blood-platelet aggregation
- toxicity (in words) [3]: low in toxicity
- central and peripheral pharmacological activity (in words) [4]: devoid of central and peripheral pharmacological activity
- Δ light transmission ([5]; 10 μM, Expt. I): 45 units
- Δ light transmission ([5]; 10 μM, Expt. II): 47 units
- Δ light transmission ([5]; 20 μM, Expt. I): 30 units
- Δ light transmission ([5]; 20 μM, Expt. II): 34 units
- Δ light transmission ([5]; 25 μM, Expt. I): 25 units
- Δ light transmission ([5]; 25 μM, Expt. II): 30 units
- Δ light transmission ([5]; 50 μM, Expt. I): 18 units
- Δ light transmission ([5]; 50 μM, Expt. II): 14 units
- Δ light transmission ([5]; 100 μM, Expt. I): 11 units
- Δ light transmission ([5]; 100 μM, Expt. II): 9 units
- inhibition at 10 µM ([5]; 10 μM, Expt. I): 0%
- inhibition at 10 µM ([5]; 10 μM, Expt. II): 6%
- inhibition at 20 µM ([5]; 20 μM, Expt. I): 33.3%
- inhibition at 20 µM ([5]; 20 μM, Expt. II): 32%
- inhibition at 25 µM ([5]; 25 μM, Expt. I): 44.4%
- inhibition at 25 µM ([5]; 25 μM, Expt. II): 40%
- inhibition at 50 µM ([5]; 50 μM, Expt. I): 60%
- inhibition at 50 µM ([5]; 50 μM, Expt. II): 71%
- inhibition at 100 µM ([5]; 100 μM, Expt. I): 75%
- inhibition at 100 µM ([5]; 100 μM, Expt. II): 82%
- IC50 ([5]; incubation in human citrated platelet-rich plasma): 40 µM
- Δ light transmission ([6]; 1 μM, Expt. I): 18 units
- Δ light transmission ([6]; 1 μM, Expt. II): 19 units
- Δ light transmission ([6]; 1 μM, Expt. III): 27 units
- Δ light transmission ([6]; 5 μM, Expt. I): 14 units
- Δ light transmission ([6]; 5 μM, Expt. II): 15 units
- Δ light transmission ([6]; 5 μM, Expt. III): 20 units
- Δ light transmission ([6]; 10 μM, Expt. I): 13 units
- Δ light transmission ([6]; 10 μM, Expt. II): 13 units
- Δ light transmission ([6]; 10 μM, Expt. III): 17 units
- Δ light transmission ([6]; 25 μM, Expt. I): 9 units
- Δ light transmission ([6]; 25 μM, Expt. II): 10 units
- Δ light transmission ([6]; 25 μM, Expt. III): 13 units
- Δ light transmission ([6]; 50 μM, Expt. I): 8 units
- Δ light transmission ([6]; 50 μM, Expt. II): 9 units
- Δ light transmission ([6]; 50 μM, Expt. III): 10 units
- Δ light transmission ([6]; 100 μM, Expt. I): 4 units
- Δ light transmission ([6]; 100 μM, Expt. II): 4 units
- Δ light transmission ([6]; 100 μM, Expt. III): 6 units
- inhibition at 1 µM ([6]; Homo sapiens, Platelet, 1 μM, Expt. I): 10%
- inhibition at 1 µM ([6]; Homo sapiens, Platelet, 1 μM, Expt. II): 9.5%
- inhibition at 1 µM ([6]; Homo sapiens, Platelet, 1 μM, Expt. III): 10%
- inhibition at 5 µM ([6]; Homo sapiens, Platelet, 5 μM, Expt. I): 30%
- inhibition at 5 µM ([6]; Homo sapiens, Platelet, 5 μM, Expt. II): 29%
- inhibition at 5 µM ([6]; Homo sapiens, Platelet, 5 μM, Expt. III): 33%
- inhibition at 10 µM ([6]; Homo sapiens, Platelet, 10 μM, Expt. I): 35%
- inhibition at 10 µM ([6]; Homo sapiens, Platelet, 10 μM, Expt. II): 38%
- inhibition at 10 µM ([6]; Homo sapiens, Platelet, 10 μM, Expt. III): 43%
- inhibition at 25 µM ([6]; Homo sapiens, Platelet, 25 μM, Expt. I): 55%
- inhibition at 25 µM ([6]; Homo sapiens, Platelet, 25 μM, Expt. II): 52%
- inhibition at 25 µM ([6]; Homo sapiens, Platelet, 25 μM, Expt. III): 57%
- inhibition at 50 µM ([6]; Homo sapiens, Platelet, 50 μM, Expt. I): 60%
- inhibition at 50 µM ([6]; Homo sapiens, Platelet, 50 μM, Expt. II): 57%
- inhibition at 50 µM ([6]; Homo sapiens, Platelet, 50 μM, Expt. III): 67%
- inhibition at 100 µM ([6]; Homo sapiens, Platelet, 100 μM, Expt. I): 80%
- inhibition at 100 µM ([6]; Homo sapiens, Platelet, 100 μM, Expt. II): 81%
- inhibition at 100 µM ([6]; Homo sapiens, Platelet, 100 μM, Expt. III): 80%
- IC50 ([6]; Homo sapiens, Platelet, incubation in whole blood): 25 µM
- inhibition of prostaglandin formation (in words) [7]: inhibit prostaglandin formation
